Test [1] has as its system NKCC1. In words: Calcium kinetic assay in primary cultures of immature hippocampal neurons. The class given is cell-based. The settings on record: 10 μM, immature neurons 3 DIV. As for the experimental part:
FIG. 2: In vitro testing of the NKCC1 inhibitors in a calcium kinetic assay. a) Example traces of fluorescence levels upon application of GABA (100 μM) and KCl (90 mM) used to trigger calcium influx in primary neuronal cultures treated after 3 days in culture (3 DIV) with vehicle, bumetanide, furosemide and compounds 3.8, 3.13 and 3.17 in the calcium kinetic assay. b) Quantification of the average fluorescence increase upon GABA application normalized to the increase upon KCl application in neurons treated with bumetanide, furosemide and 3 exemplary compounds (3.8, 3.13, 3.17) (10 μM, 100 μM). Data represents mean±sem from 5 independent experiments, and they are presented as % of the control. *P<0.05, **P<0.01, ***P<0.001 Kruskal-Wallis Anova (Dunn's Post hoc Test).
Next, the compounds of the invention were tested for their ability to revert the depolarizing GABAergic signaling in immature neurons. This effect was indirectly measured as calcium influx into the cells with an in vitro calcium kinetic assay in primary cultures of hippocampal neurons. The calcium kinetic assay exploits the physiological, endogenous, high expression of NKCC1 in immature neurons, which causes depolarizing actions of GABA and can activate voltage-gated Ca^2+ channels. Thus, in immature neurons, a compound that blocks NKCC1 is predicted to inhibit Ca^2+ responses upon GABA application. Immature neurons were cultured for 3 days in vitro (3 DIV) and loaded for 15 min with a calcium-sensitive dye (Fluo4). Then, the neurons were treated with bumetanide and furosemide (as positive controls) or with each of the selected compounds for 15 min. As a functional readout, the fluorescence level was monitored in these cultures before and after application of GABA (100 μM, for 20 sec). To test for neuronal viability at the end of the experiment, KCl was applied (90 mM, for 40 sec), which strongly depolarizes neurons, causing high activation of voltage-gated Ca^2+ channels in live cells. To quantify how bumetanide, furosemide, and selected compounds influenced NKCC1 inhibition, the fluorescence values were normalized upon GABA application to the fluorescence levels upon KCl application in treated neurons.

The target in test [2] is T1, NKCC1 (Homo sapiens, UniProt P55011).
T1 construct: expressed in transfected cells; host or cells: HEK293
T1 sequence (P55011 1-1212): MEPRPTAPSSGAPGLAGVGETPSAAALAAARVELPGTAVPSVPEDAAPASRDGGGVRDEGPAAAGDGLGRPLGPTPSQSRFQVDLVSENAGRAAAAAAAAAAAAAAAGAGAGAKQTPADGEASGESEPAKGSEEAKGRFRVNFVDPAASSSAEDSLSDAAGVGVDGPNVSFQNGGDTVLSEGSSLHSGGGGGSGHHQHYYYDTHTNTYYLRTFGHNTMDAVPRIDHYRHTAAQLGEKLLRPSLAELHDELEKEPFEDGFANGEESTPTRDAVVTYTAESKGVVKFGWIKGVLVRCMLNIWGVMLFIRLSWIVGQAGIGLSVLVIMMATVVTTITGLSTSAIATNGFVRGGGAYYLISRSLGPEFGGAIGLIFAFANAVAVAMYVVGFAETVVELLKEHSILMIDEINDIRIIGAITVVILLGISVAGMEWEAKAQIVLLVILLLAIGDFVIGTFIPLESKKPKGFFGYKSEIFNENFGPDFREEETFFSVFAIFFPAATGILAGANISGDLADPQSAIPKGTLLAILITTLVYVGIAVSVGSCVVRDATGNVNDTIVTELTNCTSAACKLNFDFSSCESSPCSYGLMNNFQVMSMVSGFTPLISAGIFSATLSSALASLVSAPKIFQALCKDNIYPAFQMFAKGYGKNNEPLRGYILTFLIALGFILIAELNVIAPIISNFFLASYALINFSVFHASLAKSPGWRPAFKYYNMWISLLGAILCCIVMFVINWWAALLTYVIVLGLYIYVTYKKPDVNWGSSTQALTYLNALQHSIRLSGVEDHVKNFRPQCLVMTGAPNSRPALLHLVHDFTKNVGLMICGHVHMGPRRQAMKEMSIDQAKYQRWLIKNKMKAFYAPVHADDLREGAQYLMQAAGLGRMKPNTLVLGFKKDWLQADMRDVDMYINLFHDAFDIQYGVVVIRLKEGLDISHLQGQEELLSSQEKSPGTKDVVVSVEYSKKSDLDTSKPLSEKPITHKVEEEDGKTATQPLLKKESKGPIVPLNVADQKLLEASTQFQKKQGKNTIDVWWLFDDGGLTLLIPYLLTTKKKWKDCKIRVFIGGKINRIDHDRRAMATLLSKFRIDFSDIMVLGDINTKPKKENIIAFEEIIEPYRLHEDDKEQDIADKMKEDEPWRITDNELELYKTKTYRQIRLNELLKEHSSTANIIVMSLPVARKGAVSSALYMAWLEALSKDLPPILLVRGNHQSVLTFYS
In words: Chloride kinetic assay (Cl-sensitive YFP) in NKCC1-transfected HEK293 cells. It counts as cell-based. The settings on record: 10 μM, NKCC1-transfected HEK293; for inhibition at 10 µM: read-out: NKCC1 Inhibition % 10 μM HEK Chloride YFP assay. As for the experimental part: FIG. 1: In vitro testing of the NKCC1 inhibitors in the chloride kinetic assay a) Example traces obtained in the chloride kinetic assay on HEK cells transfected with the YFP (mock) or with YFP and NKCC1. The arrow indicates the addition of NaCl (final concentration 74 mM) used to initiate the flux assay. b) Quantification of the effect of bumetanide (10 μM and 100 μM) or furosemide (10 μM and 100 μM) in the chloride kinetic assay on mock or NKCC1-transfected HEK293 cells. Data represents mean±sem from 5 independent experiments. c) Quantification of the effect of bumetanide and furosemide and 2 selected compounds (3.8, 3.17) in the chloride kinetic assay on NKCC1-transfected HEK293 cells. Data represents mean±sem from 5 independent experiments, and they are represented as % of the controls. *P<0.05, **P<0.01, ***P<0.001 Kruskal-Wallis Anova (Dunn's Post hoc Test); ###P<0.001 two-tailed unpaired Student t-test.
To screen in vitro the compounds efficiency in blocking NKCC1, a functional NKCC1 transporter assay was performed by measuring variation of Cl^− ion concentration in the cell through a Cl^− sensitive membrane-tagged yellow fluorescent protein (mbYFPQS, Addgene). mbYFPQS fluorescence is inversely dependent on the concentration of Cl^− inside the cell thus allowing an indirect estimation of the Cl^− transporter activity. In particular, HEK293 cells were transfected with NKCC1 or mock construct (control) together with the Cl^− sensitive YFP. After 2 DIV, the cells were treated with bumetanide and furosemide (as positive controls) or with each of the tested compounds of the invention in a Cl^− free medium. After 30 min, the inhibitory activity of the compounds was tested by monitoring fluorescence upon application of NaCl (FIG. 1a). Transported by NKCC1, Cl binds the YFP, leading to a fluorescence decrease. […] With the Cl kinetic assay, the NKCC1 inhibitory activity of the selected compounds was tested (FIG. 1c).

Regarding `CNS(=O)(=O)c1cc(C(=O)O)ccc1NCCCCCCCC(F)(F)F` [Compound 3.10, 3-(methylsulfamoyl)-4-(8,8,8-trifluorooctylamino)benzoic acid], the “NKCC1 Inhibition % 10 μM Neurons Calcium kinetic assay” value with NKCC1 [1] (Table 1) and in the test on NKCC1 [1] (Table 2) was 14% each time. Moreover, the “NKCC1 Inhibition % 10 μM HEK Chloride YFP assay” value at NKCC1 [2] (Table 1) and on NKCC1 [2] (Table 2) was “Inactive” throughout.
What is called inhibition is the change of the read-out against control, counted positive when it falls. Consider `CN(C)S(=O)(=O)c1cc(C(=O)O)ccc1NCCCC(F)(F)F` [Compound 3.15, 3-(dimethylsulfamoyl)-4-(4,4,4 trifluorobutylamino) benzoic acid], for which the “NKCC1 Inhibition % 10 μM Neurons Calcium kinetic assay” value in the test with NKCC1 [1] (Table 1) and in the test on NKCC1 [1] (Table 2) was “Inactive” each time. Moreover, the inhibition at 10 µM at NKCC1 [2] (Table 1) came to 11%.
For the compound `CN(C)S(=O)(=O)c1cc(C(=O)O)ccc1NCCCCCC(F)(F)F` [Compound 3.16, 3-(dimethylsulfamoyl)-4-(6,6,6-trifluorohexylamino) benzoic acid], the “NKCC1 Inhibition % 10 μM Neurons Calcium kinetic assay” value with NKCC1 [1] (Table 1) and in the test with NKCC1 [1] (Table 2) was “Inactive” each time. Also, at NKCC1 [2] (Table 1), the inhibition at 10 µM turned out to be 17%.
As to `COCCNc1ccc(C(=O)O)cc1S(=O)(=O)N(C)C` [Compound 3.18, 3-(dimethylsulfamoyl)-4-(2-methoxyethylamino)benzoic acid], the “NKCC1 Inhibition % 10 μM Neurons Calcium kinetic assay” value with NKCC1 [1] (Table 1) and in the test with NKCC1 [1] (Table 2) was “Inactive” each time. Besides, the inhibition at 10 µM on NKCC1 [2] (Table 1) was found to be 13%.
In the case of `COCCCCNc1ccc(C(=O)O)cc1S(=O)(=O)N(C)C` [Compound 3.19, 3-(dimethylsulfamoyl)-4-(4-methoxybutylamino)benzoic acid], the “NKCC1 Inhibition % 10 μM Neurons Calcium kinetic assay” value with NKCC1 [1] (Table 1) and in the test with NKCC1 [1] (Table 2) was “Inactive” each time. The inhibition at 10 µM on NKCC1 [2] (Table 1) came out at 6%.
Regarding `COCCCCCCNc1ccc(C(=O)O)cc1S(=O)(=O)N(C)C` [Compound 3.20, 3-(dimethylsulfamoyl)-4-(6-methoxyhexylamino)benzoic acid], the “NKCC1 Inhibition % 10 μM Neurons Calcium kinetic assay” value with NKCC1 [1] (Table 1) and in the test on NKCC1 [1] (Table 2) was 20% throughout. Moreover, the “NKCC1 Inhibition % 10 μM HEK Chloride YFP assay” value at NKCC1 [2] (Table 1) and on NKCC1 [2] (Table 2) was “Inactive” throughout.
`O=C(O)c1ccc(NCCCCCCCC(F)(F)F)c(S(=O)(=O)NC2CCCC2)c1` [Compound 3.21, 3-(cyclopentylsulfamoyl)-4-(8,8,8-trifluorooctylamino) benzoic acid]: the “NKCC1 Inhibition % 10 μM Neurons Calcium kinetic assay” value with NKCC1 [1] (Table 1) and in the test on NKCC1 [1] (Table 2) was 51% in each case. Besides, the inhibition at 10 µM on NKCC1 [2] (Table 1) amounted to 18%.
With `O=C(O)c1ccc(NCCCCCCCC(F)(F)F)c(S(=O)(=O)NC2CCCCC2)c1` [Compound 3.22, 3-(cyclohexylsulfamoyl)-4-(8,8,8-trifluorooctylamino) benzoic acid], the “NKCC1 Inhibition % 10 μM Neurons Calcium kinetic assay” value with NKCC1 [1] (Table 1) and with NKCC1 [1] (Table 2) was 54% each time. Also, the inhibition at 10 µM on NKCC1 [2] (Table 1) amounted to 4%.
Turning to `O=C(O)c1ccc(NCCCCCCCC(F)(F)F)c(S(=O)(=O)N2CCCC2)c1` [Compound 5.5, 3-pyrrolidin-1-ylsulfonyl-4-(8,8,8-trifluorooctylamino) benzoic acid], the “NKCC1 Inhibition % 10 μM Neurons Calcium kinetic assay” value with NKCC1 [1] (Table 1) and with NKCC1 [1] (Table 2) was 39% throughout. Moreover, at NKCC1 [2] (Table 1), the inhibition at 10 µM turned out to be 2%.
As to `O=C(O)c1ccc(NCCCCCCCC(F)(F)F)c(S(=O)(=O)N2CCCCC2)c1` [Compound 5.6, 3-(1-piperidylsulfonyl)-4-(8,8,8-trifluorooctylamino) benzoic acid], the “NKCC1 Inhibition % 10 μM Neurons Calcium kinetic assay” value in the test with NKCC1 [1] (Table 1) and in the test on NKCC1 [1] (Table 2) was 55% throughout. Also, the “NKCC1 Inhibition % 10 μM HEK Chloride YFP assay” value at NKCC1 [2] (Table 1) and at NKCC1 [2] (Table 2) was “Inactive” in each case.
For the compound `O=C(O)c1ccc(NCCCCCCCC(F)(F)F)c(S(=O)(=O)N2CCOCC2)c1` [Compound 5.7, 3-morpholinosulfonyl-4-(8,8,8-trifluorooctylamino) benzoic acid], the “NKCC1 Inhibition % 10 μM Neurons Calcium kinetic assay” value in the test with NKCC1 [1] (Table 1) and with NKCC1 [1] (Table 2) was 24% each time. At NKCC1 [2] (Table 1), the inhibition at 10 µM is 13%.
With `CN(C)S(=O)(=O)c1cc(C#N)ccc1NCCCCCCCC(F)(F)F` [Compound 6.3, 5-cyano-N,N-dimethyl-2-(8,8,8-trifluorooctylamino) benzenesulfonamide], at NKCC1 [2] (Table 1), the inhibition at 10 µM amounted to 20%.
Turning to `NS(=O)(=O)c1cc(C(=O)O)c(O)cc1NCCCCCCCC(F)(F)F` [Compound 7.4, 2-hydroxy-5-sulfamoyl-4-(8,8,8-trifluorooctylamino) benzoic acid], in the test on NKCC1 [1] (Table 1), the “NKCC1 Inhibition % 10 μM Neurons Calcium kinetic assay” value is reported as 24%. The inhibition at 10 µM at NKCC1 [2] (Table 1) was found to be 30%.
Regarding `CN(C)S(=O)(=O)c1cc(C(=O)O)ccc1N1CCN(CCCCC(F)(F)F)CC1` [Compound 9.1, 3-(dimethylsulfamoyl)-4-[4-(5,5,5 trifluoropentyl)piperazin-1-yl] benzoic acid], the inhibition at 10 µM on NKCC1 [2] (Table 1) was determined as 3%.

Values taken from patent US20220184008A1, “MODULATORS OF INTRACELLULAR CHLORIDE CONCENTRATION” (FONDAZIONE ISTITUTO ITALIANO DI TECNOLOGIA, priority 2019, published 2022).
